Assay results from patent publication US8153819B2, “Fungicidal mixtures comprising substituted 1-methylpyrazol-4-ylcarboxanilides” (BASF SE, priority 2005, dated 2012).

Columns and labels:
Alternaria solani = experiment: Activity against early blight of tomato caused by Alternaria solani (protective spray); type: in vivo; details: tomato leaves sprayed 1 day before infection, read after 5 days, efficacy in % of untreated control (Abbot)
Protocol: (§1) The active compounds, separately or jointly, were prepared as a stock solution comprising 25 mg of active compound which was made up to 10 ml using a mixture of acetone and/or dimethyl sulfoxide and the emulsifier Uniperol® EL (wetting agent having an emulsifying and dispersing action based on ethoxylated alkylphenols) in a ratio by volume of solvent/emulsifier of 99:1. The mixture was then made up to 100 ml with water. This stock solution was diluted with the solvent/emulsifier/water mixture described to give the concentration of active compound stated below.
(§2) As an alternative, the active compounds epoxiconazole, triticonazole and pyraclostrobin were used as commercially available ready-to-use formulation and diluted to the specified active compound concentration with water.
(§3) The visually determined percentages of infected leaf areas were converted into efficacies in % of the untreated control:
(§4) The efficacy (E) is calculated as follows using Abbot's formula: E=(1−α/β)·100 α corresponds to the fungicidal infection of the treated plants in % and β corresponds to the fungicidal infection of the untreated (control) plants in %
(§5) An efficacy of 0 means that the infection level of the treated plants corresponds to that of the untreated control plants; an efficacy of 100 means that the treated plants are not infected.
(§6) The expected efficacies of active compound combinations were determined using Colby's formula (Colby, S. R. “Calculating synergistic and antagonistic responses of herbicide combinations”, Weeds, 15, 20-22, 1967) and compared with the observed efficacies. […]
Leaves of potted tomato plants were sprayed to runoff point with an aqueous suspension having the active compound concentration stated below. […] After 5 days, the disease on the untreated but infected control plants had developed to such an extent that the infection could be determined visually in %.

Botrytis cinerea = experiment: Activity against gray mold on bell pepper leaves caused by Botrytis cinerea, 1 day protective application; type: in vivo; details: 1 day protective spray, read after 5 days
Protocol: as §1, §2, §3, §4, §5
(§7) The expected efficacies of active compound combinations were determined using Colby's formula (Colby, S. R. “Calculating synergistic and antagonistic responses of herbicide combinations”, Weeds, 15, 20-22, 1967) and compared with the observed efficacies.
(§8) Colby's formula: E=x+y−x·y/100 • E expected efficacy, expressed in % of the untreated control, when using the mixture of the active compounds A and B at the concentrations a and b; • x efficacy, expressed in % of the untreated control, when using the active compound A at the concentration a; • y efficacy, expressed in % of the untreated control, when using the active compound B at the concentration b.
Bell pepper seedlings of the cultivar “Neusiedler Ideal Elite” were, after 2-3 leaves were well developed, sprayed to runoff point with an aqueous suspension in the active compound concentration specified below. The next day, the treated plants were inoculated with a spore suspension of Botrytis cinerea which contained 1.7×10^6 spores/ml in a 2% strength aqueous biomalt solution. The test plants were then placed in a climatized chamber at 22 to 24° C., darkness and high atmospheric humidity. After 5 days, the extent of the fungal infection on the leaves could be determined visually in %.

[1] = system: Pyrenophora [syn. Drechslera] teres; experiment: Activity against net blotch of barley caused by Pyrenophora teres, 1 day protective application; type: in vivo; details: barley seedlings sprayed 24 h before inoculation, read after 6 days, efficacy in % of untreated control (Abbot)
Protocol: as §1, §2, §3
The efficacy (E) is calculated as follows using Abbot's formula: E=(1−α/β)·100 α corresponds to the fungicidal infection of the treated plants in % and β corresponds to the fungicidal infection of the untreated (control) plants in % […]
as §6

Puccinia recondita = experiment: Curative activity against brown rust of wheat caused by Puccinia recondita; type: in vivo; details: curative spray 1 day after inoculation, read after 7 days
Protocol: as §1, §2, §3, §4, §5, §7, §8
Leaves of potted wheat seedlings of the cultivar “Kanzler” were inoculated with a spore suspension of brown rust (Puccinia recondita). The pots were then placed in a chamber with high atmospheric humidity (90 to 95%) and 20 to 22° C. for 24 hours. During this time, the spores germinated and the germ tubes penetrated into the leaf tissue. The next day, the infected plants were sprayed to runoff point with the above-described active compound solution having the active compound concentration stated below. After the spray coating had dried on, the test plants were cultivated in a greenhouse at temperatures between 20 and 22° C. and 65 to 70% relative atmospheric humidity for 7 days. The extent of the rust fungal development on the leaves was then determined.

zinc ammoniate ethylenebis(dithiocarbamate) [metiram, reference compound]
Observed activity (% infection) (Alternaria solani; 63 mg/l): 0%
Observed activity (% infection) (Botrytis cinerea; 16 mg/l): 0%

Cn1nc(Cl)c(C(=O)Nc2ccccc2-c2cc(F)c(F)c(F)c2)c1C(F)F [No. Ih. 344, N-(3′,4′,5′-trifluorobiphenyl-2-yl)-3-chlorodifluoromethyl-1-methyl-1H-pyrazole-4-carboxamide]
melting point: 158 to 161 °C

Cn1cc(C(=O)Nc2ccccc2-c2cc(F)c(F)c(F)c2)c(C(F)F)n1 [No. Id.344, N-(3′,4′,5′-trifluorobiphenyl-2-yl)-3-difluoromethyl-1-methyl-1H-pyrazole-4-carboxamide]
Observed activity (% infection) ([1]; 0.25 mg/l): 67%
Observed activity (% infection) (Botrytis cinerea; 1 mg/l): 40%
Observed activity (% infection) (Puccinia recondita; 1 mg/l): 0%

CC1CCN(c2c(-c3c(F)cc(F)cc3F)c(Cl)nc3ncnn23)CC1 [5-chloro-7-(4-methyl-piperidin-1-yl)-6-(2,4,6-trifluorophenyl)-[1,2,4]tri-azolo[1,5-a]pyrimidine]
Observed activity (% infection) (Puccinia recondita; 4 mg/l): 40%

Cn1cc(C(=O)Nc2ccccc2-c2cc(F)c(F)c(F)c2)c(CF)n1 [No. Ig. 344, N-(3′,4′,5′-trifluorobiphenyl-2-yl)-3-fluoromethyl-1-methyl-1H-pyrazole-4-carboxamide]
melting point: 152 to 156 °C

COc1ccc(C(=CC(=O)N2CCOCC2)c2ccc(Cl)cc2)cc1OC [dimethomorph]
Observed activity (% infection) (Botrytis cinerea; 4 mg/l): 0%
Observed activity (% infection) (Botrytis cinerea; 16 mg/l): 0%
Observed activity (% infection) (Botrytis cinerea; 63 mg/l): 0%

COc1cc(C)c(C(=O)c2c(OC)ccc(Br)c2C)c(OC)c1OC [metrafenone]
Observed activity (% infection) (Botrytis cinerea; 4 mg/l): 0%
Observed activity (% infection) (Botrytis cinerea; 16 mg/l): 0%
Observed activity (% infection) (Botrytis cinerea; 63 mg/l): 0%

Fc1ccc([C@]2(Cn3cncn3)O[C@H]2c2ccccc2Cl)cc1 (racemic) [epoxiconazole, (2RS,3SR)-1-[3-(2-chlorophenyl)-2,3-epoxy-2-(4-fluorophenyl)propyl]-1H-1,2,4-triazole, reference compound]
Observed activity (% infection) ([1]; 0.063 mg/l): 0%
Observed activity (% infection) (Puccinia recondita; 0.063 mg/l): 0%

CC1(C)CCC(=Cc2ccc(Cl)cc2)C1(O)Cn1cncn1 (centres unmarked) [triticonazole]
Observed activity (% infection) (Botrytis cinerea; 4 mg/l): 0%
Observed activity (% infection) (Puccinia recondita; 1 mg/l): 0%

COC(=O)N(OC)c1ccccc1COc1ccn(-c2ccc(Cl)cc2)n1 [pyraclostrobin, methyl N-{2-[1-(4-chlorophenyl)-1H-pyrazol-3-yloxymethyl]phenyl}(N-methoxy)carbamate, reference compound]
Observed activity (% infection) (Alternaria solani; 4 mg/l): 50%
Observed activity (% infection) (Puccinia recondita; 1 mg/l): 0%

Cn1nc(Cl)c(C(=O)Nc2ccccc2-c2cc(F)c(F)c(F)c2)c1CF [No. Ij. 344, N-(3′,4′,5′-trifluorobiphenyl-2-yl)-3-chlorofluoromethyl-1-methyl-1H-pyrazole-4-carboxamide]
melting point: 154 to 157 °C

N#Cc1c(Cl)c(Cl)c(Cl)c(C#N)c1Cl [chlorthalonil, 2,4,5,6-tetrachloroisophthalonitrile, reference compound]
Observed activity (% infection) (Alternaria solani; 63 mg/l): 0%
Observed activity (% infection) (Puccinia recondita; 16 mg/l): 0%
